The numbers were not newly measured in patent US20070253988A1, “Methods for peeling skin” (L'OREAL, priority 2006, published 2007), which cites them from elsewhere.

For this series the following is noted: approximately 20° C., concentration of 0.1 M.

Broadly, the pKa is the pH at which an ionisable group is half protonated. For the compound `O=S(=O)(O)CCN1CCN(CCO)CC1` [N-2-hydroxyethylpiperazine-N′-2-ethanesulfonic acid], the pKa is on record as 7.55.
For the compound `O=S(=O)(O)CCN1CCN(CCS(=O)(=O)O)CC1` [piperazine-N,N′-bis[2-ethanesulfonic]acid], the pKa is reported as 6.82.
With `NC(=O)CNCCS(=O)(=O)O` [N-(2-acetamido)-2-aminoethanesulfonic acid], the pKa is on record as 6.88.
For `O=S(=O)(O)CCN(CCO)CCO` [N,N-bis[2-hydroxyethyl]-2-aminoethanesulfonic acid], the pKa is 7.17.
